Article PMC10301001, “Radiochemical and Biological Evaluation of 3p-C-NETA-ePSMA-16, a Promising PSMA-Targeting Agent for Radiotheranostics” (Pharmaceuticals, 2023)
Several values for one entry are separate records, joined by “and”; a condition that tells them apart may be missing. Equal entries are not always repeated.

What was measured:
recombinant human PSMA = biological target: T1, recombinant human PSMA (Homo sapiens, UniProt Q04609); test: fluorescence-based NAALADase enzymatic assay; format: biochemical; details: for IC50: rhPSMA, NAAG substrate, three assays in triplicate, read-out: IC50 (affinity to PSMA)
T1 construct: purchased R&D systems, Abingdon, UK
Description: The assay buffer (50 mM HEPES, 0.1 M NaCl, pH 7.5) was used to dilute the recombinant human PSMA (rhPSMA, R&D systems, Abingdon, UK) to 0.4 µg/mL, as well as the enzymatic substrate Ac-Asp-Glu (NAAG) (40 μM in assay buffer). 3p-C-NETA-ePSMA-16 and an internal reference, PSMA-617, were dissolved in assay buffer at concentrations ranging from 10^−5 to 10^−12 M. 6.25 µL of the compound were incubated with 6.25 µL of the substrate to which 12.5 µL of rhPSMA solution was added, and incubated for 1 h at 37 °C in 384-well black polystyrene microplates. Next, 25 µL of a working solution of the Amplex Red glutamic acid kit (ThermoFisher, Bleiswijk, The Netherlands) was added and incubated at 37 °C for 30 min to measure glutamate released. A HIDEX Sense Optical System (HIDEX, Goedereede, The Netherlands) was used to measure the fluorescence, with excitation set at 535 nm and emission at 590 nm. Assays were performed in triplicate and as three separate replicates. Data were normalized and analyzed using a one-site total binding regression algorithm from GraphPad Prism 9 (GraphPad Software, Boston, MA, USA).

[1] = Storage stability of the unlabeled compound; format: physicochemical
[2] = radiolabeled with 88Y, 177Lu and 205/206Bi; cited from earlier work
LS174T PSMA+ cells = test: Cell uptake and internalization assay; format: cell-based, human
Description: LS174T human colon carcinoma cells transfected with human PSMA were provided by Dr. Sandra Heskamp (Radboudumc, Nijmegen, The Netherlands). RPMI-1640 media supplemented with 2 mM glutamine, 10% fetal bovine serum (FBS), and 0.3 mg/mL G418 (Geneticin, Sigma Aldrich, Burlington, MA, USA) was used to culture the cells. PC-3-Pip and PC-3-Flu cells were received from Prof. Martin G. Pomper (John Hopkins University, Baltimore, MD, USA).
LS174T cells were seeded (1.2 × 10^6 cells/well) and cultured to confluency 24 h prior to the experiments. […] Blocking experiments were also performed using a 50-fold excess of either PSMA-617 or 3p-C-NETA-ePSMA-16. The media was removed, and wells were then rinsed twice with PBS at rt. To each well, we added 2 mL of the radioactive compound, which was incubated at 37 °C for 2 h. Internalization assay: the media containing the radioactive compound was removed from each well, followed by two washes with 1 mL cold PBS. Glycine buffer (1 mL, 50 mM glycine, 100 mM NaCl, pH 2.8) was immediately added to the wells prior to incubation at rt for 10 min. The glycine wash and an additional wash were collected into counting tubes (membrane-bound fraction). NaOH (1 mL, 1 M) was added to each well for 15 min at rt. The internalized fraction (lysate) and an additional NaOH wash were collected in the same tubes. Data were normalized to the added dose per 1,000,000 cells (AD/10^6 cells) and represented as counts per minute (CPM).

[3] = LogD7.4 shake-flask method; format: physicochemical; details: n-octanol/PBS pH 7.4, n = 3
Description: The distribution coefficient (LogD7.4) was determined by a shake-flask method in triplicate. […] The mixture was vortexed vigorously and then centrifuged at 5000× g for 15 min for phase separation. Samples of the two phases (3 × 10 μL) were taken out and measured using a PerkinElmer Wizard 2 γ-counter. LogD7.4 values were calculated using the following equation: LogD7.4 = log [(counts in octanol phase)/(counts in aqueous phase)] [34].

[4] = Transchelation/challenge study with excess EDTA; format: physicochemical; details: 37 °C, 24 h
Description: Samples were analyzed by iTLC at 1, 4, and 24 h after incubation to determine the percentage (%) of intact radioligand [16].

[5] = test system: PSMA+ LS174T tumor xenografts; test: Ex vivo biodistribution in LS174T tumor-bearing BALB/c nude mice; parameters: species or system mouse
Description: (§1) We housed 8–10 weeks old male BALB/c nude mice (BALB/cAnN Rj-Nude; Janvier Labs, Le Genest-Saint-Isle, France) in individually ventilated cages (Blue line IVC, 2 mice per cage). Sterile standard conditions were employed with the presence of cage enrichment and unlimited access to water and animal chow (Sniff GmbH). Acclimatization was realized 1 week before the beginning of the experiments. Mice were subcutaneously inoculated in their right flank with LS174T cells (4.0 × 10^6) diluted in 100 µL of cell suspension. Tumors grew to an average volume of 217.8 ± 9.4 mm^3 in 7 days (average weight of 217 ± 14.4 mg), and mice were grouped non-blinded to afford homogenous tumor size distribution intra-groups. […] All experiments were in accordance with the guidelines of the Revised Dutch Act on Animal Experimentation (WOD).
Mice (n = 4/group) were euthanized via cervical dislocation at 1, 4, and 24 h post-injection (p.i.). A block group (n = 4) containing a 50-fold excess of 3p-C-NETA-ePSMA-16 was also included in the study (euthanized at 4 h p.i.). Tissues were collected in tubes, weighted, and counted in the gamma counter.

[6] = test system: PSMA+ LS174T tumor xenografts; test: SPECT/CT imaging in LS174T tumor-bearing mice; format: in vivo, mouse; details: 1 h p.i.
Description: as §1
At 1 and 24 h p.i., mice were placed under 2% isoflurane/O2 anesthesia on a heated bed and imaged in a dedicated small-animal PET/SPECT/CT scanner (VECTor5CT scanner, MILabs B.V., Utrecht, The Netherlands) equipped with a high sensitivity pinhole collimator (XXUHS-M, 3.00 mm pinhole diameter). […] The CT and registered attenuation-corrected SPECT images were analyzed using IMALYTICS Preclinical 3.0 (Gremse-IT GmbH, Aachen, Germany).

[7] = 4 h p.i., block (50-fold excess unlabeled)

T1 sequence (Q04609 whole entry): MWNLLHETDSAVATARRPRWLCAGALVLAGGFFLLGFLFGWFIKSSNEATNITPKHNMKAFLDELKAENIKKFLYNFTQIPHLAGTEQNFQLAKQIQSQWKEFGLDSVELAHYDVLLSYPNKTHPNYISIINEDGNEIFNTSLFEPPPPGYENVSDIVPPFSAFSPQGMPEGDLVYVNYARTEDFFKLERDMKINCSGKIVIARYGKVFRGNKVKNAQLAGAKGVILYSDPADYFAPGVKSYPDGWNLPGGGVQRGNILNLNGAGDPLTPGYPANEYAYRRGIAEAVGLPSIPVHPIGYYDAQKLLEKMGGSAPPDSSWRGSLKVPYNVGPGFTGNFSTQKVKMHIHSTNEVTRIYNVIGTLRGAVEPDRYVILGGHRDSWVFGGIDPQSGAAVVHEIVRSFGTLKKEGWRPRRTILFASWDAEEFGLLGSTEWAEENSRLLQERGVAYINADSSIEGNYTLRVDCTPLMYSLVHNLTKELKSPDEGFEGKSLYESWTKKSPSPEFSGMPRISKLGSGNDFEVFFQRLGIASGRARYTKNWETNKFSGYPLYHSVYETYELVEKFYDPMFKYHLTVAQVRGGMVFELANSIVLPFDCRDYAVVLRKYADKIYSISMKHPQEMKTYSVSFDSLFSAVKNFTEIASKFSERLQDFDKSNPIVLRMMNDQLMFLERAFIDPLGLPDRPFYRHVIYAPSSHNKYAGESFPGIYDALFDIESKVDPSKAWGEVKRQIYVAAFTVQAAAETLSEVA

Structure (SMILES): CC(C)CC(NC(=O)C(Cc1ccccc1)NC(=O)C(CC(=O)O)NC(=O)CCC(=O)Nc1ccc(CCCC(CN2CCN(CC(=O)O)CCN(CC(=O)O)CC2)N(CC(=O)O)CC(=O)O)cc1)C(O)CC(=O)NCCCCCC(=O)NCCCCC(NC(=O)NC(CCC(=O)O)C(=O)O)C(=O)O (stereo not drawn) [3p-C-NETA-ePSMA-16, EuK(Ahx-Sta-Phe-Asp-3p-C-NETA)]
- IC50 (recombinant human PSMA): 4.61 ± 1.33 nM
- IC50 relative to reference PSMA-617 (fold higher IC50 / lower affinity) (recombinant human PSMA; vs PSMA-617): 5 fold
- storage stability ([1]; stored as a lyophilized powder): > 1 year
- storage stability ([1]; stored as an aqueous solution): > 6 months

Structure (SMILES): O=C(O)CN1CCN(CC(=O)O)CCN(CC(CCCc2ccc([N+](=O)[O-])cc2)N(CC(=O)O)CC(=O)O)CC1 (centres unmarked) [3p-C-NETA]
- stability in serum in vitro [2]: highly stable in serum in vitro for up to 11 days

Structure (SMILES): O=C(O)CC[C@H](NC(=O)N[C@@H](CCCCNC(=O)[C@H](Cc1ccc2ccccc2c1)NC(=O)[C@H]1CC[C@H](CNC(=O)CN2CCN(CC(=O)O)CCN(CC(=O)O)CCN(CC(=O)O)CC2)CC1)C(=O)O)C(=O)O [PSMA-617, reference compound]
- IC50 (recombinant human PSMA): 0.78 ± 0.3 nM

Structure (SMILES): CC(C)C[C@H](NC(=O)[C@H](Cc1ccccc1)NC(=O)[C@H](CC(=O)O)NC(=O)CCC(=O)Nc1ccc(CCCC(CN2CCN(CC(=O)[O-])CCN(CC(=O)[O-])CC2)N(CC(=O)[O-])CC(=O)O)cc1)[C@@H](O)CC(=O)NCCCCCC(=O)NCCCC[C@H](NC(=O)N[C@@H](CCC(=O)O)C(=O)O)C(=O)O.[111In+3] (some centres unmarked) [[^111In]In-3p-C-NETA-ePSMA-16]
- total cell uptake (LS174T PSMA+ cells): 1.41 ± 0.20 % ID/10^6 cells
- internalized fraction (LS174T PSMA+ cells; 10^−9 M, 2 h, 37 °C): 0.50 ± 0.16 % AD/10^6 cells
- membrane-bound fraction (LS174T PSMA+ cells; 10^−9 M, 2 h, 37 °C): 0.90 ± 0.05 % AD/10^6 cells
- cell uptake in the blocked group (LS174T PSMA+ cells; 50-fold excess of unlabeled compound): no uptake
- logD [3]: −2.95 ± 0.19
- intact radioligand in transchelation challenge [4]: 93.2 ± 0.7% and > 90%
- Blood uptake ([5]; 1 h p.i.): 0.26 ± 0.19 % ID/g
- Bone uptake ([5]; 1 h p.i.): 0.20 ± 0.05 % ID/g
- Heart uptake ([5]; 1 h p.i.): 0.15 ± 0.05 % ID/g
- Intestines uptake ([5]; 1 h p.i.): 0.59 ± 0.13 % ID/g
- Kidney uptake ([5]; 1 h p.i.): 26.70 ± 2.12 % ID/g
- Liver uptake ([5]; 1 h p.i.): 0.20 ± 0.03 % ID/g
- Lung uptake ([5]; 1 h p.i.): 0.45 ± 0.10 % ID/g
- Muscle uptake ([5]; 1 h p.i.): 0.13 ± 0.09 % ID/g
- Pancreas uptake ([5]; 1 h p.i.): 0.23 ± 0.05 % ID/g
- Prostate uptake ([5]; 1 h p.i.): 1.08 ± 0.41 % ID/g
- Skin uptake ([5]; 1 h p.i.): 0.46 ± 0.15 % ID/g
- Spleen uptake ([5]; 1 h p.i.): 1.28 ± 0.49 % ID/g
- Stomach uptake ([5]; 1 h p.i.): 0.31 ± 0.21 % ID/g
- Tumor uptake ([5]; 1 h p.i.): 1.62 ± 0.55 % ID/g
- Blood uptake ([5]; 4 h p.i.): 0.01 ± 0.01 % ID/g
- Bone uptake ([5]; 4 h p.i.): 0.03 ± 0.00 % ID/g
- Heart uptake ([5]; 4 h p.i.): 0.02 ± 0.00 % ID/g
- Intestines uptake ([5]; 4 h p.i.): 0.60 ± 0.28 % ID/g
- Kidney uptake ([5]; 4 h p.i.): 11.62 ± 0.62 % ID/g
- Liver uptake ([5]; 4 h p.i.): 0.07 ± 0.01 % ID/g
- Lung uptake ([5]; 4 h p.i.): 0.06 ± 0.01 % ID/g
- Muscle uptake ([5]; 4 h p.i.): 0.04 ± 0.00 % ID/g
- Pancreas uptake ([5]; 4 h p.i.): 0.03 ± 0.00 % ID/g
- Prostate uptake ([5]; 4 h p.i.): 0.12 ± 0.07 % ID/g
- Skin uptake ([5]; 4 h p.i.): 0.24 ± 0.15 % ID/g
- Spleen uptake ([5]; 4 h p.i.): 0.12 ± 0.01 % ID/g
- Stomach uptake ([5]; 4 h p.i.): 0.05 ± 0.02 % ID/g
- Tumor uptake ([5]; 4 h p.i.): 0.89 ± 0.58 % ID/g
- Blood uptake [5, 7]: 0.01 ± 0.00 % ID/g
- Bone uptake [5, 7]: 0.03 ± 0.01 % ID/g
- Heart uptake [5, 7]: 0.02 ± 0.00 % ID/g
- Intestines uptake [5, 7]: 0.68 ± 0.02 % ID/g
- Kidney uptake [5, 7]: 9.53 ± 1.66 % ID/g
- Liver uptake [5, 7]: 0.07 ± 0.01 % ID/g
- Lung uptake [5, 7]: 0.05 ± 0.01 % ID/g
- Muscle uptake [5, 7]: 0.02 ± 0.01 % ID/g
- Pancreas uptake [5, 7]: 0.02 ± 0.01 % ID/g
- Prostate uptake [5, 7]: 0.07 ± 0.02 % ID/g
- Skin uptake [5, 7]: 0.13 ± 0.02 % ID/g
- Spleen uptake [5, 7]: 0.05 ± 0.01 % ID/g
- Stomach uptake [5, 7]: 0.15 ± 0.10 % ID/g
- Tumor uptake [5, 7]: 0.12 ± 0.04 % ID/g
- Bone uptake ([5]; 24 h p.i.): 0.02 ± 0.00 % ID/g
- Heart uptake ([5]; 24 h p.i.): 0.01 ± 0.00 % ID/g
- Intestines uptake ([5]; 24 h p.i.): 0.04 ± 0.02 % ID/g
- Kidney uptake ([5]; 24 h p.i.): 4.27 ± 0.87 % ID/g
- Liver uptake ([5]; 24 h p.i.): 0.03 ± 0.00 % ID/g
- Lung uptake ([5]; 24 h p.i.): 0.02 ± 0.00 % ID/g
- Muscle uptake ([5]; 24 h p.i.): 0.01 ± 0.00 % ID/g
- Pancreas uptake ([5]; 24 h p.i.): 0.01 ± 0.00 % ID/g
- Prostate uptake ([5]; 24 h p.i.): 0.04 ± 0.01 % ID/g
- Skin uptake ([5]; 24 h p.i.): 0.10 ± 0.06 % ID/g
- Spleen uptake ([5]; 24 h p.i.): 0.03 ± 0.00 % ID/g
- Stomach uptake ([5]; 24 h p.i.): 0.01 ± 0.00 % ID/g
- Tumor uptake ([5]; 24 h p.i.): 0.12 ± 0.02 % ID/g
- tumor signal in SPECT/CT [6]: faint signal
